Assay: Phase 1 extension study of higher strength capsule (DP2A): adverse events
Format: in vivo
Description: However, with the higher strength capsules, we observed worsening gastrointestinal adverse effects including nausea, vomiting, and diarrhea in patients.
Additional studies were run using an oral formulation of the Compound of the Invention, specifically a higher strength capsule formulation (DP2A). As described herein, the Compound of the Invention blocks cancer stem cell (CSC) self-renewal and induces cell death in CSC as well as non-stem cancer cells by inhibiting Stat3, β-catenin, and Nanog pathways, and has shown potent anti-tumor and anti-metastatic activities pre-clinically. […] The studies described herein were designed as a phase 1 extension study to evaluate a formulation designed for pivotal trials to determine pharmacokinetics (PK) in patients with advanced cancer.
On Day 1, patients received a single 500 mg dose of an oral administration formulation of the Compound of the Invention (DP1). On Day 4 and Day 8, a higher strength capsule designed for pivotal trials (DP2A) was given with fasting then fed conditions. DP2A was then administered daily until disease progression or unacceptable toxicity. Endpoints were safety, PK and preliminary anticancer activity.

[1] = q 4 h dosing (N = 17), AE possibly related to BBI608

CC(=O)c1cc2c(o1)C(=O)c1ccccc1C2=O [Compound 1, 2-acetylnaphtho[2,3-b]furan-4,9-dione]
AE summary (Patient 0053, at 500 mg bid q4h (gastrointestinal issues)): No significant gastrointestinal | AE summary (Patient 0054, at 500 mg bid q4h (gastrointestinal issues)): No significant gastrointestinal | AE summary (Patient 0061, fatigue, cramping, diarrhea, and nausea starting at 500 mg bid q4h and persisting at 375 mg/250 mg/250 mg q4h): Intolerable grade 2 fatigue, | Abdominal cramps/pain, Grade 1 or 2, # Subjects [1]: 13 | Abdominal cramps/pain, Grade 1 or 2, % [1]: 76.5% | Abdominal cramps/pain, Grade 3, # Subjects [1]: 1 | Abdominal cramps/pain, Grade 3, % [1]: 5.9% | Anorexia, Grade 1 or 2, # Subjects [1]: 10 | Anorexia, Grade 1 or 2, % [1]: 58.8% | Anorexia, Grade 3, # Subjects [1]: 3 | Anorexia, Grade 3, % [1]: 17.6% | Bloated abdomen, Grade 1 or 2, # Subjects [1]: 4 | Bloated abdomen, Grade 1 or 2, % [1]: 23.5% | Bloated abdomen, Grade 3, # Subjects [1]: 0 | Bloated abdomen, Grade 3, % [1]: 0.0% | Dehydration, Grade 1 or 2, # Subjects [1]: 1 | Dehydration, Grade 1 or 2, % [1]: 5.9% | Dehydration, Grade 3, # Subjects [1]: 0 | Dehydration, Grade 3, % [1]: 0.0% | Depression, Grade 1 or 2, # Subjects [1]: 0 | Depression, Grade 1 or 2, % [1]: 0.0% | Depression, Grade 3, # Subjects [1]: 0 | Depression, Grade 3, % [1]: 0.0% | Diarrhea, Grade 1 or 2, # Subjects [1]: 14 | Diarrhea, Grade 1 or 2, % [1]: 82.4% | Diarrhea, Grade 3, # Subjects [1]: 4 | Diarrhea, Grade 3, % [1]: 23.5% | Dysgusia, Grade 1 or 2, # Subjects [1]: 1 | Dysgusia, Grade 1 or 2, % [1]: 5.9% | Dysgusia, Grade 3, # Subjects [1]: 0 | Dysgusia, Grade 3, % [1]: 0.0% | Fatigue/weakness, Grade 1 or 2, # Subjects [1]: 10 | Fatigue/weakness, Grade 1 or 2, % [1]: 58.8% | Fatigue/weakness, Grade 3, # Subjects [1]: 3 | Fatigue/weakness, Grade 3, % [1]: 17.6% | Flatulence, Grade 1 or 2, # Subjects [1]: 2 | Flatulence, Grade 1 or 2, % [1]: 11.8% | Flatulence, Grade 3, # Subjects [1]: 0 | Flatulence, Grade 3, % [1]: 0.0% | Nausea, Grade 1 or 2, # Subjects [1]: 8 | Nausea, Grade 1 or 2, % [1]: 47.1% | Nausea, Grade 3, # Subjects [1]: 1 | Nausea, Grade 3, % [1]: 5.9% | Rectal/Anal Burning, Grade 1 or 2, # Subjects [1]: 3 | Rectal/Anal Burning, Grade 1 or 2, % [1]: 17.6% | Rectal/Anal Burning, Grade 3, # Subjects [1]: 0 | Rectal/Anal Burning, Grade 3, % [1]: 0.0% | Reflux (also heartburn), Grade 1 or 2, # Subjects [1]: 1 | Reflux (also heartburn), Grade 1 or 2, % [1]: 5.9% | Reflux (also heartburn), Grade 3, # Subjects [1]: 0 | Reflux (also heartburn), Grade 3, % [1]: 0.0% | Urine Color Change, Grade 1 or 2, # Subjects [1]: 2 | Urine Color Change, Grade 1 or 2, % [1]: 11.8% | Urine Color Change, Grade 3, # Subjects [1]: 0 | Urine Color Change, Grade 3, % [1]: 0.0% | Vomiting, Grade 1 or 2, # Subjects [1]: 7 | Vomiting, Grade 1 or 2, % [1]: 41.2% | Vomiting, Grade 3, # Subjects [1]: 0 | Vomiting, Grade 3, % [1]: 0.0% | Weight loss, Grade 1 or 2, # Subjects [1]: 8 | Weight loss, Grade 1 or 2, % [1]: 47.1% | Weight loss, Grade 3, # Subjects [1]: 0 | Weight loss, Grade 3, % [1]: 0.0% | Xerostomia, Grade 1 or 2, # Subjects [1]: 4 | Xerostomia, Grade 1 or 2, % [1]: 23.5% | Xerostomia, Grade 3, # Subjects [1]: 0 | Xerostomia, Grade 3, % [1]: 0.0% | hypophosphatemia, Grade 1 or 2, # Subjects [1]: 1 | hypophosphatemia, Grade 1 or 2, % [1]: 5.9%

— US10543189B2, “2-acetylnaphtho[2,3-b]furan -4,9-dione for use on treating cancer” (Boston Biomedical, Inc., priority 2013, dated 2020)
